Key:
[1] = target: GPR40 (Homo sapiens, UniProt O14842); experiment: GPR40 agonist calcium flux assay in hGPR40/Gα16/HEK293 cells; details: for Emax at 100 µM: HEK293, read-out: Maximal Response % (100 μM)
Protocol: Linoleic acid (LA), one of the endogenous ligands for GPR40, was designated as positive control.
This bioassay was previously described [2]. Briefly: About 4 × 10^4 h GPR40/HEK293 per well were seeded in 96-well plate. After culturing for 24 h, cells were loaded with 2 μmol/L Fluo-4 AM in Hanks’ balanced salt solution at 37 °C for 40 min.

[2] = test system: STZ-NA induced diabetes mice model; experiment: In vivo antidiabetic effect in STZ-NA induced diabetes mice model; set-up: species or system CD1 mice; details: 100 mg/kg single dose, intragastric
Protocol: Glibenclamide was used as a positive control, in order to ensure that the damage over β-cells was partial and mice pancreas still produces insulin, that responds to a secretagogue such as sulfonylurea drug used in this work.
CD1 mice (20–25 g) were housed in groups of six (n = 6) under laboratory conditions. Before experimentation, all animals were fasted for 16 h with water ad libitum. All animal procedures were conducted in accordance with the Mexican Federal Regulations for Animal Experimentation and Care (SAGARPA, NOM-062-ZOO-1999), based on US National Institutes of Health Publication #85-23, revised 1985. Non-insulin-dependent diabetes mice model was induced in overnight fasted mice by a single i.p. injection of 100 mg/kg STZ, 15 min before the i.p. administration of 40 mg/kg of NA. Hyperglycaemia was established by the higher plasma glucose concentration, determined by glucometer after 2 weeks. The animals with glycaemia higher than 200 mg/dL were selected for the assay. The diabetic mice were separated into […] of six animals each (n = 6). Mice of experimental groups were administered with a suspension of the molecules 1–3 (100 mg/kg, prepared in 10% (v/v) tween 80). Control group mice were similarly treated with 10% tween 80. […] The samples of blood were collected from the caudal vein at 0, 1, 3, 5 and 7 h after administration of each compound. Blood glucose levels were estimated using a commercial glucometer. The percentage variation of glycemia for each group was calculated. Values are expressed as mean ± S.E.M. Statistical significance was estimated by ANOVA.

[3] = test system: GLUT-4; experiment: Relative mRNA expression of GLUT-4 in 3T3-L1 adipocytes; assay type: cell-based; details: 24 h treatment
From the text: 3T3-L1 fibroblasts were differentiated to the adipocyte phenotype in order to determine the action of compounds on PPARγ and GLUT-4 expression. […] The activation of PPARγ could reduce the glucose levels in diabetic patients due to insulin resistance reduction. […] Several evidences indicate that increased levels of GLUT-4 expression in skeletal muscle are critical for the regulation of glucose homeostasis.
Both assays were achieved as described elsewhere. Briefly: 3T3-L1 fibroblasts (9 × 10^5 cells per well) were cultured in 6-well plates in Dulbecco’s modified Eagle’s medium. After 2 days of confluence, the cells were differentiated to the adipocyte phenotype with 0.5 mM 3-isobutyl-1-methylxanthine, 0.25 μM dexamethasone acetate, and 0.8 μM insulin, for 48 h, followed by insulin alone for other 48 h. To determine the action of compounds on PPARγ and GLUT-4 expression, the cells were treated 24 h. RNA was isolated from cultured cells and two μg of total RNA were reverse-transcripted in a thermocycler. The enzyme was inactivated and finally samples were cooled. […] PCR was conducted and the threshold cycles (Ct) were measured in separate tubes and in duplicate. The ΔCt values were calculated in every sample for each gene of interest. Relative changes in the expression level of one specific gene (ΔΔCt) were calculated.

[4] = target: human recombinant AKR1B1 (Homo sapiens, UniProt P15121); experiment: Aldose reductase (AKR1B1) inhibition assay
Protocol: Human recombinant AKR1B1 was purified by electrophoretic homogeneity as previously described [24]. The enzyme activity was corroborated at 37 °C following the decrease of absorbance at 340 nm. […] IC50 values was determined by nonlinear regression analysis. For each curve, five different concentrations of compounds were analyzed [25].

Chain of GPR40 (O14842 whole entry): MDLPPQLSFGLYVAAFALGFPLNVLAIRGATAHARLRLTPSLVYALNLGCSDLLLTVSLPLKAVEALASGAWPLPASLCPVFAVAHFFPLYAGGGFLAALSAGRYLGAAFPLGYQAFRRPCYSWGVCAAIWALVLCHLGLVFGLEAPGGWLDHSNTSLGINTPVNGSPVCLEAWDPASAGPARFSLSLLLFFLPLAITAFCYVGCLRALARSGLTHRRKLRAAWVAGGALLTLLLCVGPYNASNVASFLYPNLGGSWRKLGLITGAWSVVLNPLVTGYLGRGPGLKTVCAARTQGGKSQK

Row | SMILES | EC50 [1] [µM] | Emax at 100 µM [1] [%] | Increase in GLUT-4 levels (mRNA expression) [3] [times] | other results
1 | O=C(O)CCc1ccc(OCc2cccc(-c3ccccc3)c2)cc1 [Compound 1, 3-[4-(Biphenyl-3-ylmethoxy)phenyl]propanoic acid] | 0.075 ± 0.02 | 98 ± 10 |  | In vivo antidiabetic activity (in words) ([2]; STZ-NA diabetic mice): lack of in vivo activity
2 | O=C(O)CCc1ccc(OCc2cccc3ccccc23)cc1 [Compound 2, 3-[4-(1-Naphthylmethoxy)phenyl]propanoic acid] |  |  | 2 to 4 | Decrease of blood glucose levels ([2]; 7 h after administration, STZ-NA diabetic mice): ~80%
3 | N#Cc1ccccc1-c1ccc(COc2ccc(CCC(=O)O)cc2)cc1 [Compound 3, 3-{4-[(2′-Cyanobiphenyl-4-yl)methoxy]phenyl} propanoic acid] |  |  | 2 to 4 | Glucose lowering effect (variation of glycemia) ([2]; at 3 h): −20%; Glucose lowering effect (variation of glycemia) ([2]; at 5 h): −50%; Glucose lowering effect (variation of glycemia) ([2]; at 7 h): −60%
4 | O=C(O)CCc1ccc(OCc2ccc3ccccc3n2)cc1 [Compound 4, 3-[4-(Quinolin-2-ylmethoxy)phenyl]propanoic acid] | ~100 | 84 |  | 
5 | O=C(O)CCc1ccc(OCC(=O)Nc2nc3ccccc3s2)cc1 [Compound 5, 3-{4-[2-(1,3-Benzothiazol-2-ylamino)-2 oxoethoxy]phenyl}propanoic Acid] | > 100 | 9.9 |  | GPR40 agonistic activity (in words) ([1]; calcium assay): inactive; IC50 [4]: 23.3 µM
6 | CCCCC/C=C\C/C=C\CCCCCCCC(=O)O [LA, Linoleic acid, reference compound] | 8.3 ± 1.7 | 100 |  | 

From article PMC6017591, “Design, Synthesis and in Combo Antidiabetic Bioevaluation of Multitarget Phenylpropanoic Acids” (Molecules : A Journal of Synthetic Chemistry and Natural …, 2018)
